Assay results: US20200323954A1, “METHODS AND COMPOSITIONS FOR REDUCING GUT ISCHEMIA/REPERFUSION-INDUCED INJURY” (PanTheryx, Inc., priority 2019, published 2020)
“Also recorded” adds a separate entry of the source. Marks after values point to notes of the source that are not given here.

Assays:
AGS cells = test: Apoptotic and protective pathways after H/R in AGS cells; assay type: cell-based, human; conditions: Hyp 1 h/Rep 24 h + PSTI, mean +/− SEM
Protocol: (§1) Hypoxia (Ischemia)/Normoxia (Reperfusion) (H/R) protocols for in vitro studies: For all experiments AGS, Caco-2 and RIE1 cells were set up in plates as described in specific methods. Cells were used at 70-80% confluence for cell injury/death assessment and as confluent monolayers for permeability studies. To induce “ischemia”, cells were placed in a hypoxic incubator (2% 02) for specified time and to mimic reperfusion, cells were placed back in a normoxic (21% 02) incubator for specified time. All treatments were duplicated in a second set of identical plates under normoxic conditions throughout the same test period as controls. To determine optimum conditions for the in vitro studies, pilot studies were performed.

[1] = system: human colonic carcinoma HT29 cells; conditions: HT29 cells in vitro; cited from earlier work
[2] = system: polarised Caco-2 monolayers; test: Transepithelial electrical resistance (TEER) after H/R; assay type: cell-based, human
Protocol: as §1
The effect of […] PSTI pre-treatment on transepithelial permeability induced by 1 hour of hypoxia followed by 24 hours of normoxia was examined using Caco-2, human polarizing colonic adenocarcinoma cells utilizing two different previously published methods according to Davison et al., 2016, Am J Nutr 2016; 104:526-536. One method determined change in transepithelial electrical resistance (TEER) and the other method analyzed the passage of horseradish peroxidase (HRP) across the epithelial layer. HRP (type II) is a non-digestible macromolecular protein (MW=44 kD) and has previously been used as a tracer in evaluation of epithelial permeability. Each monolayer had TEER and HRP permeability assessed at baseline, at the end of 1 h incubation in an hypoxic (ischemic) chamber and at the end of a 24 h reoxygenation (reperfusion) period. Measurements were taken in triplicate from 4 wells per treatment. Results are expressed as mean+/−SEM.

renal tissue = test: Gut I/R model, renal tissue; conditions: kidney, I/R + PSTI 20 μg/kg ip, mean ± SEM
[3] = system: NSAID-induced gastric injury; conditions: rats, PSTI administration; cited from earlier work
RIE1 cells = test: Apoptotic and protective pathways after H/R in RIE1 cells; assay type: cell-based, rat; conditions: RIE1, Hyp 1 h/Rep 24 h + PSTI, mean +/− SEM
Protocol: as §1

[4] = system: lipopolysaccharide-stimulated dendritic cells; conditions: lipopolysaccharide-stimulated dendritic cells in vitro; cited from earlier work
[5] = system: 90% small intestine (SI) tissue (non-clamped segment of bowel); test: Gut I/R model, non-clamped 90% SI site; conditions: 90% SI non-clamped, mean ± SEM
Caco-2 cells = test: Apoptotic and protective pathways after H/R in Caco-2 cells; assay type: cell-based, human
Protocol: as §1
Cleared cell lysates from I/R experiments in Caco-2 cells were assessed for levels of the apoptotic molecules Caspase 3 (FIG. 5A), Caspase 9 (FIG. 5I), Baxα (FIG. 5B) and Bcl2 (FIG. 5C). HIF1α (FIG. 5Δ), VEGF (FIG. 5E), hSP70 (FIG. 5F), ICAM1 (FIG. 5G) and the tight junction molecules ZO1 (FIG. 5H) and Claudin1 (FIG. 5J) levels were also analysed.

DSS-induced colitis = conditions: rats, PSTI administration; cited from earlier work
[6] = Caco-2, 1 h or 4 h hypoxia + 24 h normoxia, PSTI 1 h before, vs H/R without PSTI
[7] = normoxic, any of the cell lines (data not shown)

Caspase 3 activity (renal tissue): 0.069 ± 0.019 Change in absorbance | Caspase 9 activity (renal tissue): 0.053 ± 0.010 Change in absorbance | Caspase 3 ([5]; I/R + PSTI 20 μg/kg ip): 0.021 ± 0.007 Change in absorbance | Caspase 9 ([5]; I/R + PSTI 20 μg/kg ip): 0.014 ± 0.00052 Change in absorbance
Substance: pancreatic secretory trypsin inhibitor (DSLGREAKCYNELNGCTKIYDPVCGTDGNTYPNECVLCFENRKRQTSILIQKSGPC; listed as Homo sapiens) [PSTI]
Baxα (AGS cells): 110.9 +/− 2.79 * $ % normoxic | Bcl2 (AGS cells): 49.3 +/− 1.91 ** $$ % normoxic | Caspase 3 (AGS cells): 228.2 +/− 18.72 * $ % normoxic | Caspase 9 (AGS cells): 119.8 +/− 13.25 * $ % normoxic | Claudin 1 (AGS cells): 77.3 +/− 3.63 ** $$ % normoxic | HIF1α (AGS cells): 145.2 +/− 0.66 ** $$ % normoxic | ICAM1 (AGS cells): 113.6 +/− 0.12 **^ % normoxic | VEGF (AGS cells): 125.82 +/− 2.0 ** $$ % normoxic | ZO1 (AGS cells): 82.1 +/− 0.98 ** $ % normoxic | hSP70 (AGS cells): 132.9 +/− 1.05 ** $ % normoxic | cell migration [1]: stimulate cell migration | proliferation [1]: not proliferation | reduction of the fall in TEER caused by H/R ([2]; Caco-2, 1 h hypoxia + 24 h normoxia, PSTI pre-treatment): about 50% | TEER under normoxic conditions ([2]; Caco-2, normoxia): no effect on TEER or HRP permeation; also recorded: no effect on transepithelial resistance (TEER) | H/R-induced change in TEER permeability, medium alone vs PSTI ([2]; PSTI added to the medium prior to I/R): significantly greater increases in permeability compared to those that had PSTI added | truncation of the damaging effect of hypoxia-normoxia on epithelial integrity ([2]; TEER and HRP permeation, polarized monolayers): about 65% | Baxα (renal tissue): 5.61 ± 0.63 pg/μg total protein | Bcl2 (renal tissue): 66.37 ± 4.89 pg/μg total protein | Claudin 1 (renal tissue): 0.154 ± 0.016 pg/μg total protein | MDA (renal tissue): 0.47 ± 0.047 nmol/μg of protein | ZO1 (renal tissue): 0.151 ± 0.008 pg/μg total protein | hSP70 (renal tissue): 36.6 ± 2.96 pg/μg total protein | NSAID-induced gastric injury [3]: reduces NSAID-induced gastric injury | Baxα (RIE1 cells): 97.6 +/− 0.01 ** $ % normoxic | Bcl2 (RIE1 cells): 49.3 +/− 1.91 ** $$ % normoxic | Caspase 3 (RIE1 cells): 112.3 +/− 2.70 * % normoxic | Caspase 9 (RIE1 cells): 120.6 +/− 17.02 * $ % normoxic | Claudin 1 (RIE1 cells): 75.6 +/− 2.1 ** $$ % normoxic | HIF1α (RIE1 cells): 144.1 +/− 0.17 ** $$ % normoxic | ICAM1 (RIE1 cells): 115.4 +/− 1.09 ** % normoxic | VEGF (RIE1 cells): 121.8 +/− 2.53 ** $$ % normoxic | ZO1 (RIE1 cells): 83.6 +/− 0.69 * $ % normoxic | hSP70 (RIE1 cells): 122.9 +/− 0.85 ** % normoxic | cytokine release of TNFα and IL-12 [4]: reduced cytokine release of TNFα and IL-12 | Histological score (0-5) ([5]; I/R + PSTI 20 μg/kg ip 1 h before clamping, 30 min ischemia/3 h reperfusion): 0.142 ± 0.142 | Bcl2 ([5]; I/R + PSTI 20 μg/kg ip): 5.55 ± 1.00 pg/μg total protein | Claudin 1 ([5]; I/R + PSTI 20 μg/kg ip): 0.152 ± 0.014 pg/μg total protein | ZO1 ([5]; I/R + PSTI 20 μg/kg ip): 0.17 ± 0.008 pg/μg total protein | further increase in HIF1α above the 42% increase induced by H/R (Caco-2 cells; 4 h hypoxia+24 h reoxygenation, cells pre-treated with PSTI (FIG. 5D)): 11% | further increase in VEGF above the 34% increase caused by H/R (Caco-2 cells; 4 h hypoxia+24 h reoxygenation, co-presence of PSTI (FIG. 5E)): 15% | increase in hSP70 after H/R with PSTI (Caco-2 cells; 4 h hypoxia+24 h reoxygenation, H/R alone about 63% (FIG. 5F)): about 80% | Baxα activity (Caco-2 cells; [6]): significantly truncated; also recorded: significantly decreased Baxα activity | Bcl2 activity (Caco-2 cells; [6]): this effect was truncated; also recorded: significantly attenuated reduction in Bcl2 activity | Caspase 3 activity (Caco-2 cells; [6]): significantly decreased Caspase 3 activity | Caspase 9 activity (Caco-2 cells; [6]): significantly decreased Caspase 9 activity | Claudin1 activity (Caco-2 cells; [6]): significantly attenuated reduction in Claudin1 activity | HIF1α activity (Caco-2 cells; [6]): significantly increased HIF1α activity | ICAM1 activity (Caco-2 cells; [6]): not influenced by the presence of PSTI; also recorded: did not significantly affect ICAM1 activity | VEGF activity (Caco-2 cells; [6]): significantly increased VEGF activity | ZO1 activity (Caco-2 cells; [6]): significantly attenuated reduction in ZO1 activity | hSP70 activity (Caco-2 cells; [6]): significantly increased hSP70 activity | truncation of the H/R-induced fall in ZO1 and Claudin1 (Caco-2 cells; after 4 hours of hypoxia (FIG. 5H, 5J)): about 50% | Caspase 3, 9, Baxα or Bcl2 under normoxic conditions (Caco-2 cells; [7]): no effect on Caspase 3, 9, Baxα or Bcl2 | HIF1α or VEGF under normoxic conditions (Caco-2 cells; [7]): no effect on HIF1α or VEGF | ICAM1 levels under normoxic conditions (Caco-2 cells; normoxic, any of the cell lines tested (data not shown)): no effect on ICAM1 levels | DSS-induced colitis (DSS-induced colitis): reduces NSAID-induced gastric injury and DSS-induced colitis
